Laboratory results: the supplement of paper PMC11061612

Tests used:
Experiment in all cases: combination Emax (second highest fraction inhibited in the dose matrix, 72 h); higher = more inhibition; extreme values may be limits of the assay
[1] = system: NCI-H1838 (Lung Adenocarcinoma)
How it was run: (§1)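 Cell lines in DMEM/F12 or RPMI with 10% FBS were plated in 1536-well plates, held 24 hours at 37°C, 5% CO2, then given two-drug dose matrices for 72 hours (DMSO typically 0.2%). Viability was read by CellTiter-Glo 2.0 luminescence and scaled as inhibition from 0 (vehicle wells) to 1 (blank wells). Combination Emax is the second-highest inhibition in the matrix; Bliss excess is observed combination effect minus expected EA + EB − EA·EB, EA and EB being single-agent effects.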

[2] = system: EFO-21 (Ovarian Carcinoma)
How it was run: as §1

[3] = system: HCC1937 (Breast Carcinoma)
How it was run: as §1

[4] = system: NCI-H1092 (Small Cell Lung Carcinoma)
How it was run: as §1

[5] = system: ME-180 (Cervical Carcinoma)
How it was run: as §1

[6] = system: MOG-G-UVW (Low Grade Glioma)
How it was run: as §1

[7] = system: KOPN-8 (B-Lymphoblastic Leukemia)
How it was run: as §1

SK-N-AS (Neuroblastoma) = system: SK-N-AS (Neuroblastoma)
How it was run: as §1

[8] = system: MOLT-4 (T-Lymphoblastic Leukemia)
How it was run: as §1

[9] = system: EJM (Plasma Cell Myeloma)
How it was run: as §1

[10] = system: KGN (Other Solid Carcinomas)
How it was run: as §1

[11] = system: HCC1500 (Breast Carcinoma)
How it was run: as §1

[12] = system: ALL-SIL (T-Lymphoblastic Leukemia)
How it was run: as §1

[13] = system: NCI-H2122 (Lung Adenocarcinoma)
How it was run: as §1

[14] = system: SKN (Other Solid Carcinomas)
How it was run: as §1

[15] = system: CADO-ES1 (Ewing's Sarcoma)
How it was run: as §1

[16] = system: NCI-H650 (Lung Adenocarcinoma)
How it was run: as §1

[17] = system: HCC2998 (Colorectal Carcinoma)
How it was run: as §1

[18] = system: OACM5-1 (Esophageal Adenocarcinoma)
How it was run: as §1

[19] = system: MDA-MB-453 (Breast Carcinoma)
How it was run: as §1

Structure (SMILES) | combination Emax [1] | combination Emax [2] | combination Emax [3] | combination Emax [4] | combination Emax [5] | combination Emax [6] | combination Emax [7] | combination Emax (SK-N-AS (Neuroblastoma)) | combination Emax [8] | combination Emax [9] | combination Emax [10] | combination Emax [11] | combination Emax [12] | combination Emax [13] | combination Emax [14] | combination Emax [15] | combination Emax [16] | combination Emax [17] | combination Emax [18] | combination Emax [19]
Cc1c2c(nn1C)CSCc1cc(n(C)n1)CSc1cc(c3ccccc3c1)OCCCc1c(C(=O)O)n(C)c3c-2c(Cl)ccc13 [AZD5991] + Cc1cc2ncnn2cc1Nc1ncc2c(n1)n(C1CCOCC1)c(=O)n2C [AZD7648] (first compound max 1 µM, 7x7, partner max 10 µM) | 0.259 | 0.32 | 0.362 | 0.583 | 0.338 | 0.271 | 0.936 | 0.59 | 0.429 | 0.971 | 0.563 | 0.465 | 1 | 0.597 | 0.305 | 0.893 | 0.203 | 0.899 | 0.923 | 0.381
Cn1cnc2c(F)c(Nc3ccc(Br)cc3Cl)c(C(=O)NOCCO)cc21 [Selumetinib] + C=CCn1c(=O)c2cnc(Nc3ccc(N4CCN(C)CC4)cc3)nc2n1-c1cccc(C(C)(C)O)n1 [AZD1775] (first compound max 10 µM, partner max 1 µM) | 0.468 | 0.315 | 0.562 | 0.371 | 0.478 | 0.72 | 0.995 | 0.817 | 1 | 0.867 | 0.695 | 0.207 | 0.881 | 0.985 | 0.353 | 0.294 | 0.693 | 0.806 | 0.642 | 0.206
Cc1c2c(nn1C)CSCc1cc(n(C)n1)CSc1cc(c3ccccc3c1)OCCCc1c(C(=O)O)n(C)c3c-2c(Cl)ccc13 [AZD5991] + C[C@@H](Nc1cc(F)cc(F)c1)c1cc(C(=O)N(C)C)cc2c(=O)cc(N3CCOCC3)oc12 [AZD8186] (first compound max 1 µM, 7x7, partner max 3 µM) | 0.472 | 0.337 | 0.511 | 0.569 | 0.217 | 0.512 | 0.915 | 0.643 | 0.526 | 0.929 | 0.443 | 0.426 | 0.968 | 0.697 | 0.532 | 0.918 | 0.22 | 0.918 | 0.94 | 0.355
Cc1c2c(nn1C)CSCc1cc(n(C)n1)CSc1cc(c3ccccc3c1)OCCCc1c(C(=O)O)n(C)c3c-2c(Cl)ccc13 [AZD5991] + C1CN(CCC1(C(=O)N[C@@H](CCO)C2=CC=C(C=C2)Cl)N)C3=NC=NC4=C3C=CN4 [Capivasertib] (first compound max 1 µM, 7x7, partner max 3 µM) | 0.306 | 0.179 | 0.456 | 0.534 | 0.517 | 0.444 | 0.901 | 0.692 | 0.92 | 0.977 | 0.329 | 0.377 | 1 | 0.608 | 0.455 | 0.927 | 0.209 | 0.902 | 0.969 | 0.61
NC1(C(=O)N[C@@H](CCO)c2ccc(Cl)cc2)CCN(c2ncnc3[nH]ccc23)CC1 [Capivasertib] + Cn1cnc2c(F)c(Nc3ccc(Br)cc3Cl)c(C(=O)NOCCO)cc21 [Selumetinib] (first compound max 10 µM, 7x7, partner max 10 µM) | 0.367 | 0.335 | 0.527 | 0.215 | 0.681 | 0.714 | 0.722 | 0.515 | 0.758 | 0.403 | 0.54 | 0.25 | 0.513 | 0.983 | 0.594 | 0.279 | 0.352 | 0.774 | 0.7 | 0.572
CCN(CCO)CCCOc1ccc2c(Nc3cc(CC(=O)Nc4cccc(F)c4)[nH]n3)ncnc2c1 [AZD2811] + O=C(c1cc(Cc2n[nH]c(=O)c3ccccc23)ccc1F)N1CCN(C(=O)C2CC2)CC1 [Olaparib] (first compound max 1 µM, 7x7, partner max 10 µM) | 0.275 | 0.203 | 0.238 | 0.212 | 0.252 | 0.668 | 0.709 | 0.249 | 0.974 | 0.167 | 0.629 | 0.22 | 0.953 | 0.437 | 0.127 | 0.531 | 0.164 | 0.247 | 0.247 | 0.112
CC1(C)CCC(CN2CCN(c3ccc(C(=O)NS(=O)(=O)c4ccc(NCC5CCOCC5)c([N+](=O)[O-])c4)c(Oc4cnc5[nH]ccc5c4)c3)CC2)=C(c2ccc(Cl)cc2)C1 [Venetoclax] + C=CCn1c(=O)c2cnc(Nc3ccc(N4CCN(C)CC4)cc3)nc2n1-c1cccc(C(C)(C)O)n1 [AZD1775] (first compound max 1 µM, partner max 1 µM) | 0.421 | 0.581 | 0.406 | 0.696 | 0.599 | 0.933 | 1 | 0.953 | 1 | 0.928 | 0.68 | 0.781 | 1 | 0.98 | 0.556 | 0.68 | 0.393 | 0.599 | 0.558 | 0.769
NC1(C(=O)N[C@@H](CCO)c2ccc(Cl)cc2)CCN(c2ncnc3[nH]ccc23)CC1 [Capivasertib] + CCN(CCO)CCCOc1ccc2c(Nc3cc(CC(=O)Nc4cccc(F)c4)[nH]n3)ncnc2c1 [AZD2811] (first compound max 10 µM, 7x7, partner max 1 µM) | 0.386 | 0.235 | 0.481 | 0.353 | 0.7 | 0.733 | 0.86 | 0.329 | 0.997 | 0.43 | 0.688 | 0.265 | 0.941 | 0.797 | 0.555 | 0.243 | 0.346 | 0.5 | 0.763 | 0.599
CCc1c2c(nc3ccc(O)cc13)-c1cc3c(c(=O)n1C2)COC(=O)[C@]3(O)CC [SN-38] + CN(C)CCCOc1ccc(-c2ccc3ncc4c(c3c2)n(C2CCOCC2)c(=O)n4C)cn1 [AZD0156] (first compound max 0.3 µM, 7x7, partner max 1 µM) | 0.607 | 0.529 | 0.487 | 0.323 | 0.892 | 0.854 | 0.957 | 0.737 | 1 | 0.903 | 0.937 | 0.708 | 0.995 | 0.843 | 0.412 | 1 | 0.607 | 0.867 | 0.763 | 0.772
Cc1c2c(nn1C)CSCc1cc(n(C)n1)CSc1cc(c3ccccc3c1)OCCCc1c(C(=O)O)n(C)c3c-2c(Cl)ccc13 [AZD5991] + CCN(CCO)CCCOc1ccc2c(Nc3cc(CC(=O)Nc4cccc(F)c4)[nH]n3)ncnc2c1 [AZD2811] (first compound max 1 µM, 7x7, partner max 1 µM) | 0.447 | 0.343 | 0.4 | 0.626 | 0.343 | 0.696 | 0.983 | 0.808 | 0.941 | 0.949 | 0.574 | 0.53 | 1 | 0.883 | 0.204 | 0.908 | 0.61 | 0.94 | 0.946 | 0.75
Cc1c2c(nn1C)CSCc1cc(n(C)n1)CSc1cc(c3ccccc3c1)OCCCc1c(C(=O)O)n(C)c3c-2c(Cl)ccc13 [AZD5991] + CC1(C)CCC(CN2CCN(c3ccc(C(=O)NS(=O)(=O)c4ccc(NCC5CCOCC5)c([N+](=O)[O-])c4)c(Oc4cnc5[nH]ccc5c4)c3)CC2)=C(c2ccc(Cl)cc2)C1 [Venetoclax] (first compound max 1 µM, 7x7, partner max 1 µM) | 0.306 | 0.207 | 0.316 | 0.989 | 0.286 | 0.257 | 0.936 | 0.871 | 0.857 | 0.959 | 0.263 | 1 | 1 | 0.823 | 0.177 | 0.911 | 0.329 | 0.893 | 0.917 | 0.346
NC1(C(=O)N[C@@H](CCO)c2ccc(Cl)cc2)CCN(c2ncnc3[nH]ccc23)CC1 [Capivasertib] + CC(C)n1c(=O)n(C)c2cnc3cc(F)c(-c4ccc(OCCCN5CCCCC5)nc4)cc3c21 [AZD1390] (first compound max 10 µM, 7x7, partner max 0.3 µM) | 0.206 | 0.217 | 0.426 | 0.2 | 0.636 | 0.576 | 0.627 | 0.157 | 0.682 | 0.292 | 0.414 | 0.165 | 0.389 | 0.57 | 0.516 | 0.0981 | 0.268 | 0.398 | 0.71 | 0.56
Cn1cnc2c(F)c(Nc3ccc(Br)cc3Cl)c(C(=O)NOCCO)cc21 [Selumetinib] + CC(C)n1c(=O)n(C)c2cnc3cc(F)c(-c4ccc(OCCCN5CCCCC5)nc4)cc3c21 [AZD1390] (first compound max 10 µM, 7x7, partner max 0.3 µM) | 0.237 | 0.205 | 0.208 | 0.0809 | 0.209 | 0.346 | 0.596 | 0.422 | 0.348 | 0.0932 | 0.341 | 0.157 | 0.25 | 0.864 | 0.113 | 0.175 | 0.243 | 0.719 | 0.209 | 0.171
